From patent US9468670B2, “Melatonin-based treatment and diagnosis of bile duct disease” (Texas A&M University System, priority 2011, dated 2016)

Key:
[1] = test system: large mouse cholangiocyte lines; test: cAMP levels (RIA) in large mouse cholangiocyte lines; assay type: cell-based; settings: preincubation with antagonist (10 mM), melatonin 10^−11 M
From the text: (§1) The expression of MT1 and MT2 receptors in immortalized large cholangiocytes was first evaluated by immunofluorescence (Francis et al., 2008). Images were visualized using an Olympus IX-71 confocal microscope. For all immunoreactions, negative controls (with normal serum from the same species substituted for the primary antibody) were included. It was next evaluated by commercially available radioimmunoassay (RIA) kits ([…] et al., 1998; Kato et al., 1992; […] et al., 1999; […] et al., 2004) for cAMP levels ([…] et al., 1998; Kato et al., 1992; […] Shiu et al., 2010). […] […] et al., 1992; Ramirez-Rodriguez et al., 2009; […], 1999). […] Shiu et al., 2010) before evaluating by immunoblots (Francis et al., 2008) the expression of PCNA and the phosphorylation of PKA and EKR1/2.

MT2 vs. the MT1 subtype = settings: Shiu et al., 2010; cited from earlier work
[2] = test system: large cholangiocyte lines; test: PCNA expression and PKA, ERK1/2 phosphorylation (immunoblots) in immortalized large cholangiocytes; assay type: cell-based, mouse; settings: preincubation with antagonist (10 mM), melatonin 10^−11 M, 48 hours
From the text: as §1

cholangiocytes = test: Biliary proliferation (PCNA, IBDM) and apoptosis (TUNEL) in Morpholino-treated rats; assay type: in vivo, rat; settings: normal rats, 1 mg/Kg BW/day for 1 week via portal vein catheter
Experimental: (§2) In separate experiments, normal rats treated with Vivo-Morpholino sequences of AANAT (5′-[…] (SEQ ID NO:1), to reduce the biliary expression of AANAT) or Morpholino mismatched (5′-[…] (SEQ ID NO:2)) (Gene Tools LCC) (1 mg/Kg BW/day) for 1 week via an implanted portal vein catheter. Serum, liver tissue, cholangiocytes, kidney, spleen, small intestine, stomach and heart were collected. Since our goal was to knock-down AANAT expression in the liver without inhibiting AANAT expression in other organs, we used a lower dose (1 mg/Kg/day) of Vivo-Morpholino than that described in the original study (3.0 mg/kg/day (Arora et al., 2002). This approach minimizes the amount of Vivo-Morpholino that circulates outside of the liver after slow infusion into the portal vein. See below for the surgical procedure for the implantation of the portal vein catheter by which AANAT Vivo-Morpholino or Morpholino mismatched was administered.
(§3) Biliary proliferation was determined by measurement of the percentage of PCNA-positive cholangiocytes by immunohistochemistry, and intrahepatic bile duct mass (IBDM) by immunohistochemistry for CK-19 (Mancinelli et al., 2010). Biliary apoptosis was evaluated by semiquantitative terminal deoxynucleotidyltransferase biotin-dUTP nick-end labeling (TUNEL) kit (Chemicon International, Inc., Temecula, Calif.) (Mancinelli et al., 2010). IBDM was determined as the area occupied by CK-19 positive-bile duct/total area×100 (Mancinelli et al., 2010). The morphological changes/damage in liver, spleen, kidney, heart, stomach, and small intestine were evaluated from AANAT Vivo-Morpholino- or mismatch-treated rats by H&E staining. The serum levels of the transaminases, glutamate pyruvate transaminases (SGPT) and glutamic oxaloacetic transaminase (SGOT), alkaline phosphatase (ALP) and total bilirubin were evaluated using a Dimension RxL Max Integrated Chemistry system (Dade Behring Inc., Deerfield Ill.), Chemistry Department, Scott & White.

AANAT = target: T1, AANAT (Rattus norvegicus, UniProt Q64666); test: Melatonin levels in serum and cholangiocyte supernatant (ELISA) of Morpholino-treated rats; assay type: in vivo; settings: normal rats
T1 construct: the expression of AANAT in liver sections and cholangiocytes from the selected groups of animals; from tissue; host or cells: Male Fischer 344 rats: liver sections, total liver, isolated cholangiocytes, pineal gland, small intestine, serum
Experimental: In separate experiments, normal rats treated with Vivo-Morpholino sequences of AANAT (5'-[…] NO:1), to reduce the biliary expression of AANAT) or Morpholino mismatched (5'-[…] NO:2)) (Gene Tools LCC) (1 mg/Kg BW/day) for 1 week via an implanted portal vein catheter. Serum, liver tissue, cholangiocytes, kidney, spleen, small intestine, stomach and heart were collected. Since our goal was to knock-down AANAT expression in the liver without inhibiting AANAT expression in other organs, we used a lower dose (1 mg/Kg/day) of Vivo-Morpholino than that described in the original study (3.0 mg/kg/day (Arora et al., 2002). This approach minimizes the amount of Vivo-Morpholino that circulates outside of the liver after slow infusion into the portal vein. See below for the surgical procedure for the implantation of the portal vein catheter by which AANAT Vivo-Morpholino or Morpholino mismatched was administered. Melatonin levels in serum and medium of primary cultures of isolated cholangiocytes were determined by ELISA kits (Genway, San Diego, Calif.). Supernatants were obtained from cholangiocytes (1×10^7 cells/ml) that were incubated for 6 hours at 37° C. (Glaser et al., 2008).

[3] = rat, in vivo, 1 mg/kg/day
Experimental: as §2, §3

[4] = test system: SR, CFTR, Cl−/HCO3− AE2, VEGF-A/C; test: Expression of PCNA, SR, CFTR, Cl−/HCO3− AE2, VEGF-A/C in liver sections, liver tissue and cholangiocytes of Morpholino-treated rats; assay type: in vivo, rat; settings: normal rats, 1 week
Experimental: as §2
By real-time PCR (Francis et al., 2008), the expression of PCNA, SR, CFTR, Cl^−/HCO3^− AE2, VEGF-A/C was evaluated in total RNA from: (i) cholangiocytes from normal rats, and BDL rats treated with melatonin; and (ii) liver tissue and cholangiocytes from rats treated with mismatch or AANAT Vivo-Morpholino for 1 week. A ΔΔCT analysis was obtained using normal cholangiocytes or normal total liver as control samples (Francis et al., 2008). The primers for rat PCNA, SR, CFTR, Cl^−/HCO3^− AE2, VEGF-A/C (SABiosciences) were designed according to the NCBI GenBank Accession numbers: NM_022381 (PCNA); NM_031115 (SR); NM_017048 (Cl^−/HCO3^− AE2); XM_001059206 (CFTR); NM_031836 (VEGF-A); and NM_053653 (VEGF-C). The percentage of cholangiocytes positive for SR, CFTR, Cl^−/HCO3^− AE2 and VEGF-A/C was evaluated in liver sections: when 0%-5% of bile ducts were positive a negative score was assigned; a +/−score was assigned when 6%-10% of ducts were positive; a +score was assigned when 11%-30% of bile ducts were positive (Glaser et al., 2009).

T1 sequence (Q64666 whole entry): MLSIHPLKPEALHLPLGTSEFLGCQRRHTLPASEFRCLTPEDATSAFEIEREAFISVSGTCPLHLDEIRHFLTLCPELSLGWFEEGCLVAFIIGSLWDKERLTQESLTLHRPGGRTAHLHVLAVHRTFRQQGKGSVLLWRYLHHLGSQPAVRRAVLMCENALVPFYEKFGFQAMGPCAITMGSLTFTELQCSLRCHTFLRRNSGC

| Molecule | Prevention of the melatonin-induced decrease in cAMP levels [1] | Selectivity for the MT2 vs. the MT1 subtype (MT2 vs. the MT1 subtype) | Prevention of the melatonin-induced decreases in PCNA expression and PKA, ERK2 phosphorylation [2] | % IBDM (cholangiocytes) | % PCNA-positive cholangiocytes (cholangiocytes) | % apoptotic cholangiocytes (cholangiocytes) | Melatonin supernatant (AANAT; cholangiocyte supernatant, 6 hours at 37° C., 1 mg/Kg BW/day for 1 week) | Melatonin serum (AANAT; 1 mg/Kg BW/day for 1 week via portal vein catheter) | ALP [3] | SGOT [3] | SGPT [3] | Total bilirubin [3] | Immunoreactivity of cholangiocytes to Cl−HCO3− AE2 [4] | Immunoreactivity of cholangiocytes to SR [4] | Immunoreactivity of cholangiocytes to VEGF-A [4] |
| --- | --- | --- | --- | --- | --- | --- | --- | --- | --- | --- | --- | --- | --- | --- | --- |
| CCC(=O)NC1Cc2ccccc2C(c2ccccc2)C1 (stereo not shown) [4-P-PDOT, 4-Phenyl-2-propionamidotetralin] | not | > 300 fold | – | – | – | – | – | – | – | – | – | – | – | – | – |
| CC(=O)NCCc1c(Cc2ccccc2)[nH]c2ccccc12 [luzindole] | prevented | – | prevented | – | – | – | – | – | – | – | – | – | – | – | – |
| mismatch Morpholino: Morpholino mismatched 5′-GTTCCCGACCTTTGCAACTCGTCCC (SEQ ID NO:2), control for AANAT Vivo-Morpholino (all phosphorodiamidate morpholino (PMO); further chemistry not fully specified) | – | – | – | 0.30 ± 0.04% | 8.00 ± 0.7% | <5% | 5.8 ± 0.6 pg/mL | 46.4 ± 10.1 pg/mL | 230.7 ± 9 Units/L | 120.5 ± 10.5 Units/L | 67.75 ± 4.6 Units/L | <0.1 mg/L | +/− (a +/−score was assigned when 6%-10% of ducts were positive) | +/− (a +/−score was assigned when 6%-10% of ducts were positive) | +/− (a +/−score was assigned when 6%-10% of ducts were positive) |
